We go through 33 molecules from patent publication US20110040088A1, “FUSED HETEROCYCLIC COMPOUNDS” (priority 2003, published 2011).

Counter-ions that a name gives are not always drawn. Like-named read-outs stand apart in the source and are kept apart here.

One experiment deals with T1, rat 5-HT7a receptor (Rattus norvegicus, UniProt P32305).
T1 construct: expressed in transfected cells
Briefly: 5-HT7 receptor radioligand binding ([3H]5-CT, membranes of transfected HEK-293 cells). The conditions noted are these: rat 5-HT7a in HEK-293 membranes, 1 nM [3H]5-CT.

The target in a further experiment is 5-HT2A receptor (UniProt P28223). Kind of experiment: 5-HT2A receptor radioligand binding ([3H]ketanserin).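 Note: competitive displacement binding on membranes, either from rat cerebral cortex or from NIH3T3 cells stably expressing human 5-HT2A.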
Experiment [1] has as its target human recombinant 5-HT2B receptor (Homo sapiens, UniProt P41595). Kind of experiment: 5-HT2B receptor radioligand binding ([3H]mesulergine, CHO membranes).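 Note: competitive displacement binding on membranes of CHO cells stably expressing the receptor.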
Protocol: (§1) Affinity for 5HT2 Receptor Binding Sites
(§2) Receptor binding was performed using the human recombinant 5-HT2A (GB: X57830), 5-HT2B (GB: Z36748) and 5-HT2c (GB: M81778) receptors. The affinity of the compounds for the 3 different human 5-HT2 receptor subtypes was evaluated by competitive radioligand binding assays using [^3H]ketanserin (h5-HT2A) or [^3H]mesulergine (h5-HT2B and h5-HT2c). The assays were performed on membranes prepared from NIH3T3 stably transfected with h5-HT2A or CHO stably transfected with h5-HT2B and h5-HT2C.
The target in experiment [2] is T2, human recombinant 5-HT2C receptor (Homo sapiens, UniProt P28335).
T2 sequence (P28335 33-458): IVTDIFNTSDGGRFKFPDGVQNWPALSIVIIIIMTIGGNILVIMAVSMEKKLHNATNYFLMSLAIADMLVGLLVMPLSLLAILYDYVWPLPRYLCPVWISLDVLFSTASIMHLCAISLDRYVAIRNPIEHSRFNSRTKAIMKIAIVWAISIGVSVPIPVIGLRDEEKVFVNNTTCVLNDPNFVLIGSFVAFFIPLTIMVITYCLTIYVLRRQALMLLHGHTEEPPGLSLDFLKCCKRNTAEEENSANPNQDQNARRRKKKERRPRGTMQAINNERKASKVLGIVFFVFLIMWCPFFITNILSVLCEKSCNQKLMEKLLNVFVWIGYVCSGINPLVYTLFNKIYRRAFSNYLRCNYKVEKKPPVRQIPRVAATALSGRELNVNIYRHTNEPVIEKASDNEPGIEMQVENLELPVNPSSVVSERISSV
Kind of experiment: 5-HT2C receptor radioligand binding ([3H]mesulergine, CHO membranes).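 Note: competitive displacement of the tritiated ligand, using membranes from CHO cells stably transfected with the human receptor.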
Protocol: as §1, §2

Setting [3] is: read-out: Ki 5-HT2A, table does not say whether rat cortex or human recombinant (NIH3T3) receptor.

Sequence of human recombinant 5-HT2B receptor (P41595 whole entry): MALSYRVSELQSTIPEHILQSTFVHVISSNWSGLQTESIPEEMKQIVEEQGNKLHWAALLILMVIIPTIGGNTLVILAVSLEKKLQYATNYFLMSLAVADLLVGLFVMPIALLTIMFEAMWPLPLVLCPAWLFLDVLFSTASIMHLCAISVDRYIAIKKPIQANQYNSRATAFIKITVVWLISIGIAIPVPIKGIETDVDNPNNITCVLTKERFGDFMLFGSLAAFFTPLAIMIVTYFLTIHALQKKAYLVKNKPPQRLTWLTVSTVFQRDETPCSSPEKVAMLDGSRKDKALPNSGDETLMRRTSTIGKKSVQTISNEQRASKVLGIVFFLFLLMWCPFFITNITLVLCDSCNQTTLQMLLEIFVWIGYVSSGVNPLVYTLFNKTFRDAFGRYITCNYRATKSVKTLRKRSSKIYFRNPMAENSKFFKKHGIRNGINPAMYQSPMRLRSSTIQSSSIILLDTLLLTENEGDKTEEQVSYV
T1 sequence (P32305 whole entry): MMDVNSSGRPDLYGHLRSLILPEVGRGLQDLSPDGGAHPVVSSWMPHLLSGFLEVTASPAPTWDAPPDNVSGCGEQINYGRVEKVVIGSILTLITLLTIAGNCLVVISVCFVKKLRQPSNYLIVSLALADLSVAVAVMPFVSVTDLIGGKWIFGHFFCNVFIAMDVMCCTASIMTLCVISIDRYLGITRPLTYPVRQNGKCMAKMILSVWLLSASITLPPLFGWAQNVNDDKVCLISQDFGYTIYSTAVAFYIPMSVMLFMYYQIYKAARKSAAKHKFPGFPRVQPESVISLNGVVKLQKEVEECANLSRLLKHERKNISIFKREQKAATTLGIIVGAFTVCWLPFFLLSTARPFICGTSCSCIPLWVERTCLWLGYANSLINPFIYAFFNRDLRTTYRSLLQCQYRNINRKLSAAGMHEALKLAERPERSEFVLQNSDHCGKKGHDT
Protocol for 5-HT2A receptor: The affinity of the compounds for the rat 5-HT2A receptor was evaluated by competitive radioligand binding assay using [^3H]ketanserine as the radioligand. The assay was performed on membranes from rat cortex as previously described (Schotte, A. et al., Psychopharmacology (1996) 124: 57-73). Briefly, brain tissue (rat cortex) was homogenized in 20 volumes per wet weight tissue of Tris-HCl buffer (50 mM, pH 7.4). The total membrane fraction was collected by centrifugation and washed by subsequent centrifugation runs (25 min at 25,000 g at 4° C.). Membranes were re-suspended in Tris-HCl buffer (50 mM, pH 7.4) containing 1 nM [^3H]ketanserin. Non-specific binding was estimated in the presence of 10 μM risperidone.

As for `O=[N+]([O-])c1ccc(-c2cn(Cc3ccccc3)c3c2CNCC3)cc1` [Example 1, 1-Benzyl-3-(4-nitro-phenyl)-4,5,6,7-tetrahydro-1H-pyrrolo[3,2-c]pyridine], on rat 5-HT7a receptor, the Ki is 120 nM.
The same measure, in the same setting: the same measure for `Cc1c(-c2ccccc2)c2c(n1Cc1ccccc1)CCNC2` [Example 17, 1-Benzyl-2-methyl-3-phenyl-4,5,6,7-tetrahydro-1H-pyrrolo[3,2-c]pyridine]: 70 nM.
`Cc1ccc(-c2cn(Cc3ccccc3)c3c2CNCC3)cc1` [Example 18, 1-Benzyl-3-p-tolyl-4,5,6,7-tetrahydro-1H-pyrrolo[3,2-c]pyridine] gave a Ki at rat 5-HT7a receptor of 25 nM.
In the case of `CCCCn1cc(-c2ccc(C)cc2)c2c1CCNC2` [Example 22, 1-Butyl-3-p-tolyl-4,5,6,7-tetrahydro-1H-pyrrolo[3,2-c]pyridine], the Ki on rat 5-HT7a receptor was 45 nM.
On the same count and under the same terms, with `c1ccc(Cn2cc(-c3ccccc3)c3c2CCNCC3)cc1` [Example 26, 1-Benzyl-3-phenyl-1,4,5,6,7,8-hexahydro-pyrrolo[2,3-d]azepine] the figure was 18 nM.
Take `Fc1ccc(-c2nn(Cc3ccccc3)c3c2CCNCC3)cc1` [Example 47, 1-Benzyl-3-(4-fluoro-phenyl)-1,4,5,6,7,8-hexahydro-1,2,6-triaza-azulene]: the Ki amounted to 7 nM at rat 5-HT7a receptor, 9 nM on 5-HT2A receptor (setting [3]), 64 nM in experiment [1] and 24 nM in experiment [2].
In the case of `CCCN1CCc2c(-c3ccccc3)nn(Cc3ccccc3)c2CC1` [Example 57, 1-Benzyl-3-phenyl-6-propyl-1,4,5,6,7,8-hexahydro-1,2,6-triaza-azulene], on rat 5-HT7a receptor, the Ki came to 15 nM.
In the case of `CCn1nc2c(c1-c1ccc(Cl)cc1)CCNCC2` [Example 64, 3-(4-Chloro-phenyl)-2-ethyl-2,4,5,6,7,8-hexahydro-1,2,6-triaza-azulene], the Ki worked out at 19 nM at rat 5-HT7a receptor and 18 nM on 5-HT2A receptor (setting [3]).
`Cc1cccc(Cn2nc(-c3ccc(Cl)cc3)c3c2CCNCC3)c1` [Example 74, 3-(4-Chloro-phenyl)-1-(3-methyl-benzyl)-1,4,5,6,7,8-hexahydro-1,2,6-triaza-azulene]: the Ki came out at 5 nM at rat 5-HT7a receptor, 100 nM at 5-HT2A receptor (setting [3]), 94 nM in experiment [1] and 180 nM in experiment [2].
Taken in the same sequence, the figures for `Fc1ccc(Cn2nc(-c3ccc(Cl)cc3)c3c2CCNCC3)cc1` [Example 75, 3-(4-Chloro-phenyl)-1-(4-fluoro-benzyl)-1,4,5,6,7,8-hexahydro-1,2,6-triaza-azulene] were 7 nM, 200 nM, 100 nM and 320 nM.
As for `Fc1cccc(Cn2nc(-c3ccc(Cl)cc3)c3c2CCNCC3)c1` [Example 76, 3-(4-Chloro-phenyl)-1-(3-fluoro-benzyl)-1,4,5,6,7,8-hexahydro-1,2,6-triaza-azulene], the Ki on rat 5-HT7a receptor came out at 8 nM; on 5-HT2A receptor (setting [3]), 210 nM; in experiment [1], 350 nM; in experiment [2] it was 690 nM.
The molecule `OCCCCCn1nc(-c2ccc(Cl)cc2)c2c1CCNCC2` [Example 87, 5-[3-(4-Chloro-phenyl)-5,6,7,8-tetrahydro-4H-1,2,6-triaza-azulen-1-yl]-pentan-1-ol] registered a Ki at rat 5-HT7a receptor of 33 nM.
`O=[N+]([O-])c1ccc(Cn2nc(-c3ccc(Cl)cc3)c3c2CCNCC3)cc1` [Example 98, 3-(4-Chloro-phenyl)-1-(4-nitro-benzyl)-1,4,5,6,7,8-hexahydro-1,2,6-triaza-azulene]: the Ki at rat 5-HT7a receptor was 40 nM.
`CS(=O)(=O)Nc1ccc(Cn2nc(-c3ccccc3)c3c2CCNCC3)cc1` [Example 100, N-[4-(3-Phenyl-5,6,7,8-tetrahydro-4H-1,2,6-triaza-azulen-1-ylmethyl)-phenyl]-methanesulfonamide] had a Ki at rat 5-HT7a receptor of 30 nM.
For `Clc1ccc(-c2nn(Cc3cccs3)c3c2CCNCC3)cc1` [Example 103, 3-(4-Chloro-phenyl)-1-thiophen-2-ylmethyl-1,4,5,6,7,8-hexahydro-1,2,6-triaza-azulene], the inhibition constant Ki on rat 5-HT7a receptor amounted to 7.7 nM; at 5-HT2A receptor (setting [3]), 60 nM; in experiment [1], 44 nM; in experiment [2], 150 nM.
As for `Fc1ccc(Cn2nc(-c3ccc(Cl)cc3)c3c2CCNCC3)c(F)c1` [Example 108, 3-(4-Chloro-phenyl)-1-(2,4-difluoro-benzyl)-1,4,5,6,7,8-hexahydro-1,2,6-triaza-azulene], the Ki on rat 5-HT7a receptor was found to be 9 nM; in experiment [1], 100 nM; in experiment [2], 800 nM.
`C=CCCn1nc(-c2ccc(Cl)cc2)c2c1CCNCC2` [Example 111, 1-But-3-enyl-3-(4-chloro-phenyl)-1,4,5,6,7,8-hexahydro-1,2,6-triaza-azulene] registered a Ki at rat 5-HT7a receptor of 17 nM.
As for `CCC(CC)Cn1nc(-c2ccc(Cl)cc2)c2c1CCNCC2` [Example 114, 3-(4-Chloro-phenyl)-1-(2-ethyl-butyl)-1,4,5,6,7,8-hexahydro-1,2,6-triaza-azulene], the Ki came to 32 nM at rat 5-HT7a receptor, 90 nM in experiment [1] and 400 nM in experiment [2].
Consider `Clc1ccc(-c2nn(CC3CCCCC3)c3c2CCNCC3)cc1` [Example 117, 3-(4-Chloro-phenyl)-1-cyclohexylmethyl-1,4,5,6,7,8-hexahydro-1,2,6-triaza-azulene], for which the Ki on rat 5-HT7a receptor was determined as 20 nM.
On to `CC(C)Cn1nc(-c2ccc(Cl)cc2)c2c1CCNCC2` [Example 118, 3-(4-Chloro-phenyl)-1-isobutyl-1,4,5,6,7,8-hexahydro-1,2,6-triaza-azulene], for which the Ki at rat 5-HT7a receptor stood at 8 nM; at 5-HT2A receptor (setting [3]), 20 nM.
As to `Clc1ccc(-c2nn(Cc3ccc4c(c3)OCO4)c3c2CCNCC3)cc1` [Example 119, 1-Benzo[1,3]dioxo1-5-ylmethyl-3-(4-chloro-phenyl)-1,4,5,6,7,8-hexahydro-1,2,6-triaza-azulene], the Ki on rat 5-HT7a receptor was determined as 39 nM.
Same read-out and setting: with `Clc1ccc(-c2nn(CC3CCOCC3)c3c2CCNCC3)cc1` [Example 120, 3-(4-Chloro-phenyl)-1-(tetrahydro-pyran-4-ylmethyl)-1,4,5,6,7,8-hexahydro-1,2,6-triaza-azulene] the figure was 40 nM.
With `COc1ccc(CN2CCc3[nH]nc(-c4ccc(Cl)cc4)c3CC2)cc1OC` [Example 167, 3-(4-Chloro-phenyl)-6-(3,4-dimethoxy-benzyl)-1,4,5,6,7,8-hexahydro-1,2,6-triaza-azulene], the Ki on rat 5-HT7a receptor came out at 75 nM; in experiment [1], 350 nM; in experiment [2], 10000 nM.
Regarding `Clc1ccc(-c2nn(-c3ccccc3)c3c2CCNCC3)cc1` [Example 172, 3-(4-Chloro-phenyl)-1-phenyl-1,4,5,6,7,8-hexahydro-1,2,6-triaza-azulene], at rat 5-HT7a receptor, the Ki was determined as 37 nM.
Still for that read-out and setting: the same measure for `Cc1ccccc1Cn1nc(-c2ccc(Cl)cc2)c2c1CCNCCC2` [Example 174, 3-(4-Chloro-phenyl)-1-(2-methyl-benzyl)-4,5,6,7,8,9-hexahydro-1H-1,2,7-triaza-cyclopentacyclooctene]: 40 nM.
As to `Clc1ccc(-c2c3c(nn2C2CCCCC2)CCNCC3)cc1` [Example 178, 3-(4-Chloro-phenyl)-2-cyclohexyl-2,4,5,6,7,8-hexahydro-1,2,6-triaza-azulene], the Ki on rat 5-HT7a receptor was determined as 85 nM; at 5-HT2A receptor (setting [3]), 3 nM; in experiment [1] it was 3 nM.
Turning to `CCC(CC)n1nc2c(c1-c1cccs1)CCNCC2` [Example 191, 2-(1-Ethyl-propyl)-3-thiophen-2-yl-2,4,5,6,7,8-hexahydro-1,2,6-triaza-azulene], the Ki at rat 5-HT7a receptor is 30 nM.
Consider `CCn1nc2c(c1-c1ccc(C)cc1)CCNCC2` [Example 214, 2-Ethyl-3-p-tolyl-2,4,5,6,7,8-hexahydro-1,2,6-triaza-azulene], for which the inhibitory constant (Ki) on rat 5-HT7a receptor is 5 nM; in experiment [1], 2 nM; in experiment [2], 170 nM.
In the case of `CC(C)(C)n1nc2c(c1-c1ccccc1)CCNCC2` [Example 215, 2-tert-Butyl-3-phenyl-2,4,5,6,7,8-hexahydro-1,2,6-triaza-azulene], the figures for the Ki (at rat 5-HT7a receptor; on 5-HT2A receptor (setting [3]); in experiment [1]) were 30 nM, 8 nM and 95 nM, respectively.
`CC(C)n1nc2c(c1-c1ccc([N+](=O)[O-])cc1)CCNCC2` [Example 253, 2-Isopropyl-3-(4-nitro-phenyl)-2,4,5,6,7,8-hexahydro-1,2,6-triaza-azulene]: the Ki was 75 nM on rat 5-HT7a receptor, 25 nM in experiment [1] and 625 nM in experiment [2].
At rat 5-HT7a receptor, `Clc1ccc(-c2nn(C3CCCCCCC3)c3c2CCNCC3)cc1` [Example 255, 3-(4-Chloro-phenyl)-1-cyclooctyl-1,4,5,6,7,8-hexahydro-1,2,6-triaza-azulene] displayed a Ki of 60 nM.
As for `CCc1ccc(-c2c3c(nn2CC)CCNCC3)cc1` [Example 257, 2-Ethyl-3-(4-ethyl-phenyl)-2,4,5,6,7,8-hexahydro-1,2,6-triaza-azulene], the Ki stood at 9 nM at rat 5-HT7a receptor, 2 nM in experiment [1] and 110 nM in experiment [2].
Turning to `Clc1ccc(-c2nn(Cc3ccccc3)c3c2CCNCC3)cc1` [Example 273, 1-Benzyl-3-(4-chloro-phenyl)-1,4,5,6,7,8-hexahydro-1,2,6-triaza-azulene citrate salt], the Ki on rat 5-HT7a receptor is 5 nM; on 5-HT2A receptor (read-out: Ki 5-HT2A, table does not say whether rat cortex or human recombinant (NIH3T3) receptor, citrate salt) it was 400 nM.

Broadly, the Ki is the equilibrium dissociation constant of an inhibitor or competing ligand from its target.
